Like-named read-outs stand apart in the source and are kept apart here. Bridge positions count the residues as written; N and C are the ends. Peptide text beside a SMILES is read from it.
How the values were obtained:
Trypsin = biological target: T1, Trypsin (Bos taurus, UniProt P00760); test: Trypsin inhibition on Z-L-Lys-SBzl substrate
T1 sequence (P00760 24-246): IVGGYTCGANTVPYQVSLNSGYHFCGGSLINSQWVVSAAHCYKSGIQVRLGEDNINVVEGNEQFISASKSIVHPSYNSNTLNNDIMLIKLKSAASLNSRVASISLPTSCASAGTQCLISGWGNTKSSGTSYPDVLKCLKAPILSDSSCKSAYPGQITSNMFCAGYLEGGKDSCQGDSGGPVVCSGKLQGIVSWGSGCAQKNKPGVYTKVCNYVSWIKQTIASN

Thrombin = Thrombin (Homo sapiens, UniProt P00734); test: Thrombin inhibition with Z-Gly-Pro-Arg-pNa substrate; type: biochemical
[1] = test system: lectin pathway of the complement system; test: WIELISA complement assay, lectin pathway; type: biochemical; conditions: serum, FIG. 7
Procedure: (§1) For measuring we used the so-called WIELISA kit (Euro-Diagnostica AB, COMPL300) developed for the selective measuring of the complement pathways, on the basis of the instructions for use attached to the kit. […] At the same time, the product detected during measuring is not a pathway-selective component, but the last element of the joint section of the activation pathways, the C5-9 complex.
(§2) The serum was diluted according to the prescriptions with the buffer belonging to the given complement pathway, it was incubated for 20 minutes at room temperature, the dilution sequence prepared from peptides was added to it, it was incubated for 20 minutes at room temperature, then it was pipetted into the appropriate wells of a special ELISA plate. In the following, washing, incubation and antibody addition was performed according to the instructions for use. It was incubated for 20 minutes with the substrate, and then the data was read at 450 nm in a spectrophotometer. A parallel belonged to each measuring point, 100% activity was represented by the serum without an inhibitor. The measurements were performed at the same time and on the same plate, from one single melted serum sample.

[2] = test system: extrinsic pathway of blood coagulation; test: Prothrombin time (PT) in blood plasma; conditions: peptide 200 μM, FIG. 6.b
Procedure: (§3) We performed blood coagulation measurements using blood plasma taken from healthy individuals. From the blood obtained through venipuncture and treated with sodium citrate (3.8% wt/vol) the plasma was isolated by centrifugation (2000 g, 15 minutes, Jouan CR412 centrifuge).
(§4) Prothrombin time (PT) testing the extrinsic pathway of blood coagulation was measured on Sysmex® CA-500 (Sysmex, Japan) automatic system using Innovin® Reagent (Dale Behring, Marburg, Germany). Activated partial thromboplastin time (APTT) testing the intrinsic pathway of blood coagulation and thrombin time (TT) directly testing thrombin operation was measured on a Coag-A-Mate® MAX (BioMerieux, France) analyser using TriniClot™ reagent (Trinity Biotech, Wichlow, Ireland) and Reanal™ reagent (Reanal Finechemical, Hungary).
(§5) To examine the effects of peptides on blood coagulation we measured dose dependency, the results are shown on the graphs in FIG. 6. […] On the ordinates time is determined in seconds, while on the abscissas the logarithm of the inhibitor concentration is shown in μM.
(§6) FIG. 6.a illustrates an experiment for measuring thrombin time, in the course of which plasma coagulation (fibrin formation) is initiated by adding thrombin to the plasma. […] The members of this protease cascade are inhibited with peptide used in increasing concentrations (abscissa), and the time needed for coagulation is measured (ordinate).

[3] = test system: classical pathway of the complement system; test: WIELISA complement assay, classical pathway; type: biochemical; conditions: serum, FIG. 7
Procedure: as §1, §2

[4] = test system: blood coagulation (thrombin operation); test: Thrombin time (TT) in blood plasma; conditions: peptide 200 μM, FIG. 6.a
Procedure: as §3, §4, §5, §6

[5] = test system: intrinsic pathway of blood coagulation; test: Activated partial thromboplastin time (APTT) in blood plasma; conditions: peptide 200 μM, FIG. 6.c
Procedure: as §3, §4, §5, §6

[6] = test system: alternative pathway of the complement system; test: WIELISA complement assay, alternative pathway; type: biochemical; conditions: serum, FIG. 7
Procedure: as §1, §2

MASP-1 CCP1-CCP2-SP = biological target: T2, MASP-1 CCP1-CCP2-SP (Homo sapiens, UniProt P48740); test: Ki determination with synthetic substrate Z-L-Lys-SBzl on MASP-1; type: biochemical
T2 construct: Human MASP-targets consist of a serine-protease (SP) domain and two complement control protein domains (CCP-1,-2); made in house
T2 sequence (P48740 449-699 limits assumed): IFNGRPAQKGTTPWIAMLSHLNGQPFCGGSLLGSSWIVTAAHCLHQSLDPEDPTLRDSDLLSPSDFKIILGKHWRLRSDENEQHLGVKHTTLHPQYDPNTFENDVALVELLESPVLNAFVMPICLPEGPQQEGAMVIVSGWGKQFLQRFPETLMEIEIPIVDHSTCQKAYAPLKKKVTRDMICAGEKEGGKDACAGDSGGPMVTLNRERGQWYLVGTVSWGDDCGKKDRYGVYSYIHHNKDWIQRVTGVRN
T2 sequence (P48740 298-448 partner limits assumed): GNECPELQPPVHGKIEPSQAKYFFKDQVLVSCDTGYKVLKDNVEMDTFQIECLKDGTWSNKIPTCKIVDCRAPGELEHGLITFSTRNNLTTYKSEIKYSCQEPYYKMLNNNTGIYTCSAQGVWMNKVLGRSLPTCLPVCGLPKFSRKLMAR

MASP-2 CCP1-CCP2-SP = biological target: T3, MASP-2 CCP1-CCP2-SP (Homo sapiens, UniProt O00187); test: Ki determination with synthetic substrate Z-L-Lys-SBzl on MASP-2; type: biochemical; conditions: NG = inhibition could not be measured even at the highest inhibitor concentration used
T3 construct: Human MASP-targets consist of a serine-protease (SP) domain and two complement control protein domains (CCP-1,-2); made in house
T3 sequence (O00187 445-686 limits assumed): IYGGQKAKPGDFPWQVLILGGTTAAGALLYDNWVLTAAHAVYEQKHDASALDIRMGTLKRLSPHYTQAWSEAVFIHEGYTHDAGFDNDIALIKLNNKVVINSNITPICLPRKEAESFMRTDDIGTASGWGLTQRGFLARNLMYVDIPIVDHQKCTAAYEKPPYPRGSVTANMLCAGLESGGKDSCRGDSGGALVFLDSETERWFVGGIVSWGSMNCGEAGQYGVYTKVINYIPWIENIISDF
T3 sequence (O00187 287-444 partner limits assumed): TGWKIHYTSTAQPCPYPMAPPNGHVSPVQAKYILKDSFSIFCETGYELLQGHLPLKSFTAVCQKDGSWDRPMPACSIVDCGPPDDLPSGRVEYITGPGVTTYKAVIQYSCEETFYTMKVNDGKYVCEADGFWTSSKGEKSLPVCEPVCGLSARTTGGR

MASP enzymes [7] = test: Preliminary experiments: binding of SGCI to MASP enzymes
MASP enzymes [8] = test: Preliminary experiments: inhibition of MASP enzymes by SGCI; type: biochemical

## CC[C@H](C)[C@@H]1NC(=O)[C@@H]2CCCN2C(=O)[C@@H]2CCCN2C(=O)[C@H](CC(C)C)NC(=O)[C@H](CO)NC(=O)[C@H](CCCNC(=N)N)NC(=O)[C@H](CO)NC(=O)[C@@H](NC(=O)[C@@H](NC(=O)CN)C(C)C)CSSC[C@@H](C(=O)N[C@@H](Cc2c[nH]c3ccccc23)C(=O)N2CCC[C@H]2C(=O)N[C@@H](CC(=O)O)C(=O)O)NC1=O [M1-3E-Y12W] (H-GVCSRSLPPICWPD-OH; disulfide 3-11; N-terminus and C-terminus assumed)
Trypsin
  Ki: 170 nM

## CC[C@H](C)[C@@H]1NC(=O)CNC(=O)[C@H](CC(=O)O)NC(=O)[C@@H]2CCCN2C(=O)[C@H]([C@@H](C)CC)NC(=O)[C@@H]2CSSC[C@H](NC1=O)C(=O)N[C@@H](CO)C(=O)N[C@@H](CCCNC(=N)N)C(=O)N[C@@H](CO)C(=O)N[C@@H](CC(C)C)C(=O)N1CCC[C@H]1C(=O)N1CCC[C@H]1C(=O)N[C@@H]([C@@H](C)CC)C(=O)N2 [M2-4G cyclic] (cyclo(CIPDGICSRSLPPI); disulfide 1-7)
Trypsin
  Ki: 350 nM

## CC[C@H](C)[C@H](NC(=O)CN)C(=O)N[C@H]1CSSC[C@@H](C(=O)N[C@H](C(=O)N2CCC[C@H]2C(=O)N[C@@H](CC(=O)O)C(=O)O)[C@@H](C)CC)NC(=O)[C@H]([C@@H](C)CC)NC(=O)[C@@H]2CCCN2C(=O)[C@@H]2CCCN2C(=O)[C@H](CC(C)C)NC(=O)[C@H](CO)NC(=O)[C@H](CCCNC(=N)N)NC(=O)[C@H](CO)NC1=O [M2-4G] (H-GICSRSLPPICIPD-OH; disulfide 3-11; N-terminus and C-terminus assumed)
Trypsin
  Ki: 260 nM
  trypsin inhibition compared to wild-type SFTI-1: much weaker on trypsin than wild-type SFTI-1
Thrombin
  thrombin inhibition: poor thrombin inhibitor
Thrombin; read-out: Ki value on thrombin
  Ki: 10000 nM
[1]
  inhibition of the lectin pathway (C5-9 complex): efficient and specific inhibitors of the lectin pathway
[2]
  prothrombin time, effect on coagulation: reached the extreme measuring value
[3]
  inhibition of the classical pathway (C5-9 complex): neither “S” peptide nor the “NS” peptide inhibited
[4]
  thrombin time, effect on coagulation: reached the extreme measuring value
[5]
  activated thromboplastin time, effect on coagulation: reached the extreme measuring value
[6]
  inhibition of the alternative pathway (C5-9 complex): neither “S” peptide nor the “NS” peptide inhibited

## CC[C@H](C)[C@H](NC(=O)[C@@H]1CSSC[C@H](NC(=O)[C@H](CCSC)NC(=O)CN)C(=O)N[C@@H](CO)C(=O)N[C@@H](CCCNC(=N)N)C(=O)N[C@@H](CO)C(=O)N[C@@H](Cc2ccc(O)cc2)C(=O)N2CCC[C@H]2C(=O)N2CCC[C@H]2C(=O)N[C@@H](C(C)C)C(=O)N1)C(=O)N1CCC[C@H]1C(=O)N[C@@H](CC(=O)O)C(=O)O [M2-6E-Y2M] (H-GMCSRSYPPVCIPD-OH; disulfide 3-11; N-terminus and C-terminus assumed)
Trypsin
  Ki: 4000 nM

## CC[C@H](C)[C@H](NC(=O)[C@@H]1CSSC[C@H](NC(=O)[C@H](Cc2c[nH]c3ccccc23)NC(=O)CN)C(=O)N[C@@H](CO)C(=O)N[C@@H](CCCNC(=N)N)C(=O)N[C@@H](CO)C(=O)N[C@@H](Cc2ccc(O)cc2)C(=O)N2CCC[C@H]2C(=O)N2CCC[C@H]2C(=O)N[C@@H](C(C)C)C(=O)N1)C(=O)N1CCC[C@H]1C(=O)N[C@@H](CC(=O)O)C(=O)O [M2-6E-Y2W] (H-GWCSRSYPPVCIPD-OH; disulfide 3-11; N-terminus and C-terminus assumed)
Trypsin
  Ki: 1700 nM

## CC[C@H](C)[C@H](NC(=O)[C@@H]1CSSC[C@H](NC(=O)[C@H](Cc2ccc(O)cc2)NC(=O)CN)C(=O)N[C@@H](CO)C(=O)N[C@@H](CCCNC(=N)N)C(=O)N[C@@H](CO)C(=O)N[C@@H]([C@@H](C)CC)C(=O)N2CCC[C@H]2C(=O)N2CCC[C@H]2C(=O)N[C@@H](C(C)C)C(=O)N1)C(=O)N1CCC[C@H]1C(=O)N[C@@H](CC(=O)O)C(=O)O [M2-6E-Y7I] (H-GYCSRSIPPVCIPD-OH; disulfide 3-11; N-terminus and C-terminus assumed)
Trypsin
  Ki: 160 nM

## CC[C@H](C)[C@H](NC(=O)[C@@H]1CSSC[C@H](NC(=O)[C@H](Cc2ccc(O)cc2)NC(=O)CN)C(=O)N[C@@H](CO)C(=O)N[C@@H](CCCNC(=N)N)C(=O)N[C@@H](CO)C(=O)N[C@@H](Cc2ccc(O)cc2)C(=O)N2CCC[C@H]2C(=O)N2CCC[C@H]2C(=O)N[C@@H](C(C)C)C(=O)N1)C(=O)N1CCC[C@H]1C(=O)N[C@@H](CC(=O)O)C(=O)O [M2-6E] (H-GYCSRSYPPVCIPD-OH; disulfide 3-11; N-terminus and C-terminus assumed)
Trypsin
  Ki: 1000 nM
Trypsin; compared with wild-type SFTI
  activity on trypsin, lower by: 4 orders of magnitude
Thrombin
  thrombin inhibition: very poor thrombin inhibitor
Thrombin; read-out: KI Thrombin
  Ki: 550000 nM
[1]
  inhibition of the lectin pathway (C5-9 complex): efficient and specific inhibitors of the lectin pathway
MASP-1 CCP1-CCP2-SP
  activity on MASP-1: not active on MASP-1
[2]
  prothrombin time, effect on coagulation: remained near the normal range
[3]
  inhibition of the classical pathway (C5-9 complex): neither “S” peptide nor the “NS” peptide inhibited
[4]
  thrombin time, effect on coagulation: remained near the normal range
[5]
  activated thromboplastin time, effect on coagulation: remained near the normal range
MASP-2 CCP1-CCP2-SP
  Ki: 180 nM
[6]
  inhibition of the alternative pathway (C5-9 complex): neither “S” peptide nor the “NS” peptide inhibited

## CC[C@H](C)[C@@H]1NC(=O)[C@@H]2CCCN2C(=O)[C@@H]2CCCN2C(=O)[C@H]([C@@H](C)CC)NC(=O)[C@H](CO)NC(=O)[C@H](CCCCN)NC(=O)[C@H]([C@@H](C)O)NC(=O)[C@@H](NC(=O)[C@H](CCCNC(=N)N)NC(=O)CN)CSSC[C@@H](C(=O)N[C@@H](Cc2ccccc2)C(=O)N2CCC[C@H]2C(=O)N[C@@H](CC(=O)O)C(=O)O)NC1=O [wild-type SFTI, reference compound]
Thrombin
  Ki: 140000 nM

## SGCI: Schistocerca Gregaria Chymotrypsin Inhibitor, chymotrypsin inhibitor molecule fused to the SFTI library for monovalent phage display (EVTCEPGTTFKDKCNTCRCGSDGKSAACTLKACPQ)
MASP enzymes [7]
  binding to MASP enzymes: does not even bind to these enzymes
MASP enzymes [8]
  inhibition of MASP enzymes: does not inhibit MASP enzymes
